Read-outs that look alike come from different tables or passages of the source.
Assays:
[1] = molecular target: T1, AefR; experiment: ITC with purified His6-AefR; supported by EMSA (disrupts AefR-pmexEF-oprN interaction at […]); type: binding, Pseudomonas fluorescens
T1 construct: His6-AefR (aefR gene in a pET-28b-derived vector)

[2] = molecular target: T1, AefR; experiment: as above; type: binding, Pseudomonas fluorescens; remark: listed apart in the source

Structure (SMILES): O=C(CCc1ccc(O)cc1)c1c(O)cc(O)cc1O [phloretin]
- Kd [1]: 2.79 µM

Structure (SMILES): O=c1cc(-c2ccc(O)cc2)oc2cc(O)cc(O)c12 [apigenin]
- Kd [2]: 162 µM

Structure (SMILES): O=c1c(O)c(-c2ccc(O)c(O)c2)oc2cc(O)cc(O)c12 [quercetin]
- Kd [1]: 640 µM

From PMC11915855, “The flavonoid-sensing regulator AefR is involved in modulating quorum sensing through repressing the MexEF-OprN efflux pump in Pseudomonas fluorescens” (mSystems, 2025)
